Among the data in patent US20260022142A1, “MACROCYCLIC IMMUNOMODULATORS” (Bristol-Myers Squibb Company, priority 2022, published 2026) are IC50 values, retold here.

Structures are written as SMILES. Numbered stars: 1 amine (or outer) side, 2 acyl side, 3 side chain; on linkers, the order of the positions; unused ones are H or OH. Bridge positions count the residues as written; N and C are the ends. Square brackets hold non-standard residues; d marks the D form. Peptide text beside a SMILES is read from it. * marks the point of attachment. ξ: configuration not given here. Bip = N[C@@H](Cc1ccc(-c2ccccc2)cc1)C(=O)O; Phe(4-NH2) = Nc1ccc(C[C@H](N)C(=O)O)cc1; Phe(3-Me) = Cc1cccc(C[C@H](N)C(=O)O)c1; βAsp = O=C(O)[C@H](CC(=O)[*:2])N[*:1]; Val(3-OH) = CC(C)(O)[C@H](N)C(=O)O; hArg = N=C(N)NCCCC[C@H](N)C(=O)O; 4Pal = N[C@@H](Cc1ccncc1)C(=O)O; Cha = N[C@@H](CC1CCCCC1)C(=O)O; Cit = NC(=O)NCCC[C@H](N)C(=O)O; Thr(3ξ) = CC(O)[C@H](N)C(=O)O; 12Ado = NCCCCCCCCCCCC(=O)O; hSer = N[C@@H](CCO)C(=O)O; Carboxymethyl = O=C(O)C*; Orn = NCCC[C@H](N)C(=O)O; Aun = NCCCCCCCCCCC(=O)O; Dab = NCC[C@H](N)C(=O)O; Dap = NC[C@H](N)C(=O)O; AEEA = NCCOCCOCC(=O)O; ξS = NC(CO)C(=O)O

For this experiment, the target named is T1, PD-1/PD-L1 interaction (PE-labeled human PD-L1-Ig binding to Jurkat cell line over-expressing human PD-1) (Homo sapiens, UniProt Q15116).
T1 construct: expressed in transfected cells; host or cells: Jurkat
T1 sequence (Q15116 25-288): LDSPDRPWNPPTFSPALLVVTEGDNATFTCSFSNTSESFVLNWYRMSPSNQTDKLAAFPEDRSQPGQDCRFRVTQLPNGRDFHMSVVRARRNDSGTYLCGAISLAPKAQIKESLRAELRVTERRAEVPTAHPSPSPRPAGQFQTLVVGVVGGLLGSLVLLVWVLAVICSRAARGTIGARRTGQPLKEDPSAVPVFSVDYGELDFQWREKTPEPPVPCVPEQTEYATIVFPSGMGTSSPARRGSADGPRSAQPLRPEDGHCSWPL
The experiment can be described thus: Jurkat-PD-1 Cell Binding High-Content Screening Assay (CBA). In kind it is cell-based. Particulars: Jurkat cell line over-expressing human PD-1; PE-labeled PD-L1-Ig 20 nM final; read-out: Jurkat hPD1-PDL1 IC50. Put shortly:
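Jurkat-hPD-1 cells, DMEM/10% FCS; cpd 2 h 37° C; PE-PD-L1-Ig 20 nM final, 1 h; 4% PFA fix + Hoechst 33342, 3× dPBS wash; high-content imaging read-out.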
For `Cc1cccc(C[C@@H]2NC(=O)[C@H](CC(=O)O)NC(=O)[C@H](Cc3ccc(OCC(=O)O)cc3)NC(=O)[C@H](C(C)O)NC(=O)CSC[C@@H](C(=O)N[C@@H](CCN)C(=O)NCCCCCCCCCCC(=O)O)NC(=O)[C@H](CCO)NC(=O)[C@H](C(C)C)NC(=O)[C@H](CC3CCCCC3)NC(=O)[C@H](CCN)NC(=O)[C@@H](CC(C)C)NC(=O)[C@H](CCCN)NC(=O)[C@H](Cc3ccc(OCC(=O)O)cc3)NC(=O)[C@H](Cc3ccc(-c4ccccc4)cc3)NC(=O)[C@H](Cc3ccc(OCC(=O)O)cc3)NC2=O)c1` (stereo partly drawn) [Compound 3482] ({CH2CO}-[Thr(3ξ)]Y(Carboxymethyl)D[Phe(3-Me)]Y(Carboxymethyl)[Bip]Y(Carboxymethyl)[Orn][dL][Dab][Cha]V[hSer]C[Dab][Aun]-OH; thioether N-14), the IC50 (as a rule, the concentration that inhibits the measured activity by half) was 7.5 nM.
The value for `Cc1cccc(C[C@@H]2NC(=O)[C@H](CC(=O)O)NC(=O)[C@H](Cc3ccc(OCC(=O)O)cc3)NC(=O)[C@H](Cc3ccncc3)NC(=O)CSC[C@@H](C(=O)N[C@@H](CCN)C(=O)NCCOCCOCC(=O)NCCOCCOCC(=O)NCCCCCCCCCCC(=O)O)NC(=O)[C@H](CCCN)NC(=O)[C@H](C(C)(C)O)NC(=O)[C@H](CC3CCCCC3)NC(=O)[C@H](CCN)NC(=O)[C@@H](CC(C)C)NC(=O)[C@H](CCCN)NC(=O)[C@H](Cc3ccc(OCC(=O)O)cc3)NC(=O)[C@H](Cc3ccc(-c4ccccc4)cc3)NC(=O)[C@H](Cc3ccc(OCC(=O)O)cc3)NC2=O)c1` [Compound 3755] ({CH2CO}-[4Pal]Y(Carboxymethyl)D[Phe(3-Me)]Y(Carboxymethyl)[Bip]Y(Carboxymethyl)[Orn][dL][Dab][Cha][Val(3-OH)][Orn]C[Dab][AEEA][AEEA][Aun]-OH; thioether N-14) was 314 nM; that for `Cc1cccc(C[C@@H]2NC(=O)[C@H](CC(=O)O)NC(=O)[C@H](Cc3ccc(OCC(=O)O)cc3)NC(=O)[C@H](Cc3ccc(N)cc3)NC(=O)CSC[C@@H](C(=O)N[C@@H](CCN)C(=O)NCCCCCCCCCCC(=O)O)NC(=O)[C@H]([C@@H](C)O)NC(=O)[C@H](C(C)C)NC(=O)[C@H](CC3CCCCC3)NC(=O)[C@H](CCN)NC(=O)[C@@H](CC(C)C)NC(=O)[C@H](CCCN)NC(=O)[C@H](Cc3ccc(OCC(=O)O)cc3)NC(=O)[C@H](Cc3ccc(-c4ccccc4)cc3)NC(=O)[C@H](Cc3ccc(OCC(=O)O)cc3)NC2=O)c1` [Compound 2147] ({CH2CO}-[Phe(4-NH2)]Y(Carboxymethyl)D[Phe(3-Me)]Y(Carboxymethyl)[Bip]Y(Carboxymethyl)[Orn][dL][Dab][Cha]VTC[Dab][Aun]-OH; thioether N-14) was 17.2 nM.
Next, `Cc1cccc(C[C@@H]2NC(=O)[C@H](CC(=O)O)NC(=O)[C@H](Cc3ccc(OCC(=O)O)cc3)NC(=O)[C@H](CN)NC(=O)CSC[C@@H](C(=O)N[C@@H](CC(=O)NCCOCCOCC(=O)NCCCCCCCCCCC(=O)O)C(=O)O)NC(=O)[C@H]([C@@H](C)O)NC(=O)[C@H](C(C)C)NC(=O)[C@H](CC3CCCCC3)NC(=O)[C@H](CCN)NC(=O)[C@@H](CC(C)C)NC(=O)[C@H](CCCN)NC(=O)[C@H](CCCNC(N)=O)NC(=O)[C@H](Cc3ccc(-c4ccccc4)cc3)NC(=O)[C@H](C(C)C)NC2=O)c1` [Compound 1035] ({CH2CO}-[Dap]Y(Carboxymethyl)D[Phe(3-Me)]V[Bip][Cit][Orn][dL][Dab][Cha]VTC[βAsp][AEEA][Aun]-OH; thioether N-14): 9 nM.
The value for `Cc1cccc(C[C@@H]2NC(=O)[C@H](CC(=O)O)NC(=O)[C@H](Cc3ccc(OCC(=O)O)cc3)NC(=O)[C@H](CN)NC(=O)CSC[C@@H](C(=O)N[C@@H](CCCCN)C(=O)N[C@@H](CO)C(=O)NCCCCCCCCCCC(=O)O)NC(=O)[C@H](CCCN)NC(=O)[C@H](C(C)C)NC(=O)[C@H](CC3CCCCC3)NC(=O)[C@H](CCN)NC(=O)[C@@H](CC(C)C)NC(=O)[C@H](CCCN)NC(=O)[C@H](Cc3ccc(O)cc3)NC(=O)[C@H](Cc3ccc(-c4ccccc4)cc3)NC(=O)[C@H](C(C)C)NC2=O)c1` [Compound 3608] ({CH2CO}-[Dap]Y(Carboxymethyl)D[Phe(3-Me)]V[Bip]Y[Orn][dL][Dab][Cha]V[Orn]CKS[Aun]-OH; thioether N-14) was 52.7 nM; that for `Cc1cccc(C[C@@H]2NC(=O)[C@H](CC(=O)O)NC(=O)[C@H](Cc3ccc(OCC(=O)O)cc3)NC(=O)[C@H](CCCNC(=N)N)NC(=O)CSC[C@@H](C(=O)N[C@@H](CCN)C(=O)NCCCCCCCCCCC(=O)O)NC(=O)[C@H](CCCN)NC(=O)[C@H](C(C)C)NC(=O)[C@H](CC3CCCCC3)NC(=O)[C@H](CCN)NC(=O)[C@@H](CC(C)C)NC(=O)[C@H](CCCN)NC(=O)[C@H](CCCNC(N)=O)NC(=O)[C@H](Cc3ccc(-c4ccccc4)cc3)NC(=O)[C@H](C(C)C)NC2=O)c1` [Compound 3306] ({CH2CO}-RY(Carboxymethyl)D[Phe(3-Me)]V[Bip][Cit][Orn][dL][Dab][Cha]V[Orn]C[Dab][Aun]-OH; thioether N-14) was 7.9 nM; that for `Cc1cccc(C[C@@H]2NC(=O)[C@H](CC(=O)O)NC(=O)[C@H](Cc3ccc(OCC(=O)O)cc3)NC(=O)[C@H](CCCCNC(=N)N)NC(=O)CSC[C@@H](C(=O)NCCOCCOCC(=O)N[C@@H](CCN)C(=O)NCCCCCCCCCCC(=O)O)NC(=O)[C@H](CCCN)NC(=O)[C@H](C(C)C)NC(=O)[C@H](CC3CCCCC3)NC(=O)[C@H](CN)NC(=O)[C@@H](CC(C)C)NC(=O)[C@H](CCCN)NC(=O)[C@H](C(C)C)NC(=O)[C@H](Cc3ccc(-c4ccccc4)cc3)NC(=O)[C@H](C(C)C)NC2=O)c1` [Compound 3249] ({CH2CO}-[hArg]Y(Carboxymethyl)D[Phe(3-Me)]V[Bip]V[Orn][dL][Dap][Cha]V[Orn]C[AEEA][Dab][Aun]-OH; thioether N-14) was 25.6 nM.
For `CC[C@H](C)[C@@H]1NC(=O)[C@H](Cc2ccc(-c3ccccc3)cc2)NC(=O)[C@H](C(C)C)NC(=O)[C@H](Cc2cccc(C)c2)NC(=O)[C@H](CC(=O)O)NC(=O)[C@H](Cc2ccc(C(=O)O)cc2)NC(=O)[C@H](Cc2ccncc2)NC(=O)CSC[C@@H](C(=O)N[C@@H](C)C(=O)N[C@@H](CCC(=O)O)C(=O)NCC(=O)NCCCCCCCCCCC(=O)O)NC(=O)[C@H]([C@@H](C)O)NC(=O)[C@H](C(C)C)NC(=O)[C@H](CC2CCCCC2)NC(=O)[C@H](CCN)NC(=O)[C@@H](CC(C)C)NC(=O)[C@H](CCCN)NC1=O` [Compound 1041], the IC50 was found to be 15.1 nM.
For `Cc1cccc(C[C@@H]2NC(=O)[C@H](CC(=O)O)NC(=O)[C@H](Cc3ccc(O)cc3)NC(=O)[C@H](CC(N)=O)NC(=O)CSC[C@@H](C(=O)N[C@@H](CCCCN)C(=O)NCCCCCCCCCCC(=O)O)NC(=O)[C@H](CCCN)NC(=O)[C@H](C(C)C)NC(=O)[C@H](CC(C)C)NC(=O)[C@H](CCN)NC(=O)[C@@H](CC(C)C)NC(=O)[C@H](CCCN)NC(=O)[C@H](CCCNC(N)=O)NC(=O)[C@H](Cc3ccc(-c4ccccc4)cc3)NC(=O)[C@H](C(C)C)NC2=O)c1` [Compound 2803] ({CH2CO}-NYD[Phe(3-Me)]V[Bip][Cit][Orn][dL][Dab]LV[Orn]CK[Aun]-OH; thioether N-14), the IC50 stood at 73.9 nM.
The value for `Cc1cccc(C[C@@H]2NC(=O)[C@H](CC(=O)O)NC(=O)[C@H](Cc3ccc(OCC(=O)O)cc3)NC(=O)[C@H](CN)NC(=O)CSC[C@@H](C(=O)N[C@@H](CCN)C(=O)NCCOCCOCC(=O)NCCCCCCCCCCC(=O)O)NC(=O)[C@H](CO)NC(=O)[C@H](C(C)(C)O)NC(=O)[C@H](CC3CCCCC3)NC(=O)[C@H](CCN)NC(=O)[C@@H](CC(C)C)NC(=O)[C@H](CCCN)NC(=O)[C@H](Cc3ccc(OCC(=O)O)cc3)NC(=O)[C@H](Cc3ccc(-c4ccccc4)cc3)NC(=O)[C@H](Cc3ccc(OCC(=O)O)cc3)NC2=O)c1` [Compound 2023] ({CH2CO}-[Dap]Y(Carboxymethyl)D[Phe(3-Me)]Y(Carboxymethyl)[Bip]Y(Carboxymethyl)[Orn][dL][Dab][Cha][Val(3-OH)]SC[Dab][AEEA][Aun]-OH; thioether N-14) was 10.2 nM; that for `CC(C)C[C@H]1NC(=O)[C@H](CCN)NC(=O)[C@H](C(C)C)NC(=O)[C@H](Cc2ccc(-c3ccccc3)cc2)NC(=O)[C@H](C(C)C)NC(=O)[C@H](Cc2c[nH]c3ccccc23)NC(=O)[C@H](CC(=O)O)NC(=O)[C@H](Cc2ccc(OCC(=O)O)cc2)NC(=O)[C@H](CCCCNC(=N)N)NC(=O)CSC[C@@H](C(=O)N[C@@H](CCN)C(=O)NCCCCCCCCCCC(=O)O)NC(=O)[C@H](CCCCN)NC(=O)[C@H](C(C)C)NC(=O)[C@H](CC2CCCCC2)NC(=O)[C@H](CCN)NC1=O` [Compound 3255] ({CH2CO}-[hArg]Y(Carboxymethyl)DWV[Bip]V[Dab][dL][Dab][Cha]VKC[Dab][Aun]-OH; thioether N-14) was 13.2 nM; that for `Cc1cccc(C[C@@H]2NC(=O)[C@H](CC(=O)O)NC(=O)[C@H](Cc3ccc(OCC(=O)O)cc3)NC(=O)[C@H](CCCCNC(=N)N)NC(=O)CSC[C@@H](C(=O)NCC(=O)NCCOCCOCC(=O)N[C@@H](CCC(=O)O)C(=O)NCCCCCCCCCCCC(=O)O)NC(=O)[C@H](CO)NC(=O)[C@H](C(C)C)NC(=O)[C@H](CC3CCCCC3)NC(=O)[C@H](CCN)NC(=O)[C@@H](CC(C)C)NC(=O)[C@H](CCCN)NC(=O)[C@H](CCCNC(N)=O)NC(=O)[C@H](Cc3ccc(-c4ccccc4)cc3)NC(=O)[C@H](C(C)C)NC2=O)c1` [Compound 3185] ({CH2CO}-[hArg]Y(Carboxymethyl)D[Phe(3-Me)]V[Bip][Cit][Orn][dL][Dab][Cha]VSCG[AEEA]E[12Ado]-OH; thioether N-14) was 17.6 nM.
Next, `Cc1cccc(C[C@@H]2NC(=O)[C@H](CC(=O)O)NC(=O)[C@H](Cc3ccc(OCC(=O)O)cc3)NC(=O)[C@H](CN)NC(=O)CSC[C@@H](C(=O)N[C@@H](CCN)C(=O)NCCCCCCCCCCC(=O)O)NC(=O)C(CO)NC(=O)[C@H](C(C)C)NC(=O)[C@H](CC3CCCCC3)NC(=O)[C@H](CCN)NC(=O)[C@@H](CC(C)C)NC(=O)[C@H](CCCN)NC(=O)[C@H](Cc3ccc(O)cc3)NC(=O)[C@H](Cc3ccc(-c4ccccc4)cc3)NC(=O)[C@H](C(C)C)NC2=O)c1` (stereo partly drawn) [Compound 2098] ({CH2CO}-[Dap]Y(Carboxymethyl)D[Phe(3-Me)]V[Bip]Y[Orn][dL][Dab][Cha]V[ξS]C[Dab][Aun]-OH; thioether N-14): 53.4 nM.
